Laboratory results: US20250376472A1, “3-(PHENYLSULFONYL)-[1,2,3]TRIAZOLO[1,5A]QUINAZOLIN-5(4H)-ONE DERIVATIVES” (priority 2022, published 2025)

Assays:
AgrA [1] = molecular target: T1, AgrA (Staphylococcus aureus, UniProt P0A0I7); test: cell-based; parameters: species or system S. aureus; details: for Ratio IC50 (in presence of HSA)/IC50 (in absence of HSA): 40 mg/mL HSA versus no HSA
T1 construct: endogenous in cells; host or cells: S. aureus USA300 strain UAMS-1625 carrying a P3-lacZ reporter plasmid

MRSA USA300 type strain = details: mice infected with MRSA USA300 type strain, applied multiple times; cited from earlier work
red blood cell (RBC) = details: cited from earlier work
AgrA [2] = molecular target: T1, AgrA; details: all four agr groups; cited from earlier work
S. aureus [3] = details: after multiple passages with Savirin; cited from earlier work
S. aureus [4] = details: cited from earlier work
[5] = IC50 at 40 mg/mL HSA, LB medium supplemented with human serum albumin 40 mg/mL
[6] = IC50 without HSA, LB medium, no human serum albumin, 18 hours incubation
[7] = LB medium supplemented with human serum albumin 40 mg/mL
[8] = LB medium, no human serum albumin, 18 hours incubation

T1 sequence (P0A0I7 whole entry): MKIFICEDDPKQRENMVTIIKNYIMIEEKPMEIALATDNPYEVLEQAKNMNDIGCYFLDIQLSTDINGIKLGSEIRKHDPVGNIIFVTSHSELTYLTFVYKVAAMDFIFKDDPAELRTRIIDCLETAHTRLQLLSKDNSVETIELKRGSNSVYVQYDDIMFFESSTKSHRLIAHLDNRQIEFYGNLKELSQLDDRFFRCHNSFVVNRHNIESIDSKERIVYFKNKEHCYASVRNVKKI

| Compound | IC50 (AgrA [1]; [5]) [µM] | IC50 (AgrA [1]; [6]) [µM] | other results |
| --- | --- | --- | --- |
| Cc1ccc(S(=O)(=O)c2nnn3c2[nH]c(=O)c2ccc(N4CCN(CC(=O)N5CCN6CCCC6C5)CC4)cc23)c(C)c1 (stereo not drawn) [Compound 130] | < 16.5 | < 1.65 |  |
| Cc1ccc(S(=O)(=O)c2nnn3c2[nH]c(=O)c2ccc(N4CCN(CC(=O)NCCN)CC4)cc23)c(C)c1 [Compound 131] | 18.6 to 92.8 | 1.86 to 9.28 |  |
| Cc1ccc(S(=O)(=O)c2nnn3c2[nH]c(=O)c2ccc(N4CCN(CC(=O)N5CCNCC5)CC4)cc23)c(C)c1 [Compound 134] | < 17.7 | 1.77 to 8.85 |  |
| Cc1ccc(S(=O)(=O)c2nnn3c2[nH]c(=O)c2ccc(N4CCN(CC(=O)N5CCC(N)C5)CC4)cc23)c(C)c1 (stereo not drawn) [Compound 135] | 17.7 to 88.5 | 1.77 to 8.85 |  |
| Cc1ccc(S(=O)(=O)c2nnn3c2[nH]c(=O)c2ccc(N4CCN(CC(=O)NC5CCNC5)CC4)cc23)c(C)c1 (stereo not drawn) [Compound 136] | 17.7 to 88.5 | 1.77 to 8.85 |  |
| Cc1ccc(S(=O)(=O)c2nnn3c2[nH]c(=O)c2ccc(N4CCN(CC(=O)N5CCC(CN)C5)CC4)cc23)c(C)c1 (stereo not drawn) [Compound 137] | 17.3 to 86.4 | 1.73 to 8.64 |  |
| Cc1ccc(S(=O)(=O)c2nnn3c2[nH]c(=O)c2ccc(N4CCN(CC(=O)NC5CNC5)CC4)cc23)c(C)c1 [Compound 138] | 18.2 to 90.8 | 1.82 to 9.08 |  |
| Cc1ccc(S(=O)(=O)c2nnn3c2[nH]c(=O)c2ccc(N4CCN(CC(=O)N5CC(N)C5)CC4)cc23)c(C)c1 [Compound 139] | < 18.2 | 1.82 to 9.08 |  |
| Cc1ccc(S(=O)(=O)c2nnn3c2[nH]c(=O)c2ccc(N4CCN(CC(=O)NC5CCNCC5)CC4)cc23)c(C)c1 [Compound 140] | 17.3 to 86.4 | 1.73 to 8.64 |  |
| Cc1ccc(S(=O)(=O)c2nnn3c2[nH]c(=O)c2ccc(N4CCN(CC(=O)N5CCC(N)CC5)CC4)cc23)c(C)c1 [Compound 141] | < 17.3 | 1.73 to 8.64 |  |
| Cc1ccc(S(=O)(=O)c2nnn3c2[nH]c(=O)c2ccc(N4CCN(CC(=O)NC5CCCNC5)CC4)cc23)c(C)c1 (stereo not drawn) [Compound 142] | < 17.3 | 1.73 to 8.64 |  |
| Cc1ccc(S(=O)(=O)c2nnn3c2[nH]c(=O)c2ccc(N4CCN(CC(=O)N5CCCC(N)C5)CC4)cc23)c(C)c1 (stereo not drawn) [Compound 143] |  |  | Ratio IC50 (in presence of HSA)/IC50 (in absence of HSA) (AgrA [1]): +++ (+++: ratio ≤ 25); IC50 at 40 mg/mL HSA (AgrA [1]; [7]): +++ (+++: IC50 ≤ 10 μg/mL); IC50 without HSA (AgrA [1]; [8]): ++ (++: 1 μg/mL < IC50 ≤ 5 μg/mL) |
| Cc1ccc(S(=O)(=O)c2nnn3c2[nH]c(=O)c2ccc(N4CCN(CC(=O)N5CCCC(CN)C5)CC4)cc23)c(C)c1 (stereo not drawn) [Compound 144] | < 16.9 | 1.69 to 8.44 |  |
| Cc1ccc(S(=O)(=O)c2nnn3c2[nH]c(=O)c2ccc(N4CCN(CC(=O)N5CCCCC5CN)CC4)cc23)c(C)c1 (stereo not drawn) [Compound 145] | 16.9 to 84.4 | 1.69 to 8.44 |  |
| Cc1ccc(S(=O)(=O)c2nnn3c2[nH]c(=O)c2ccc(N4CCN(CC(=O)N5CCCC(CCN)C5)CC4)cc23)c(C)c1 (stereo not drawn) [Compound 146] |  |  | Ratio IC50 (in presence of HSA)/IC50 (in absence of HSA) (AgrA [1]): +++ (+++: ratio ≤ 25); IC50 at 40 mg/mL HSA (AgrA [1]; [7]): +++ (+++: IC50 ≤ 10 μg/mL); IC50 without HSA (AgrA [1]; [8]): ++ (++: 1 μg/mL < IC50 ≤ 5 μg/mL) |
| Cc1ccc(S(=O)(=O)c2nnn3c2[nH]c(=O)c2ccc(N4CCN(CC(=O)N5CCC(CN)CC5)CC4)cc23)c(C)c1 [Compound 147] | 16.9 to 84.4 | 1.69 to 8.44 |  |
| Cc1ccc(S(=O)(=O)c2nnn3c2[nH]c(=O)c2ccc(N4CCN(CC(=O)N5C[C@H]6CNC[C@H]6C5)CC4)cc23)c(C)c1 [Compound 153] | 16.9 to 84.6 | 1.69 to 8.46 |  |
| Cc1ccc(S(=O)(=O)c2nnn3c2[nH]c(=O)c2ccc(N4CCCN(CC(=O)N5CCNCC5)CC4)cc23)c(C)c1 [Compound 161] | < 17.3 | 1.73 to 8.64 |  |
| Cc1ccc(S(=O)(=O)c2nnn3c2[nH]c(=O)c2ccc(N4CCCN(CCC(=O)N5CCCC5)CC4)cc23)c(C)c1 [Compound 163] | < 17.3 | 1.73 to 8.65 |  |
| O=C(CN1CCN(c2ccc3c(=O)[nH]c4c(S(=O)(=O)c5ccc(C(F)(F)F)cc5)nnn4c3c2)CC1)N1CCCC1 [Compound 164] | 17 to 84.8 | 1.7 to 8.48 |  |
| CC(C)c1ccc(S(=O)(=O)c2nnn3c2[nH]c(=O)c2ccc(N4CCN(CC(=O)N5CCCC5)CC4)cc23)cc1 [Compound 166] |  |  | Ratio IC50 (in presence of HSA)/IC50 (in absence of HSA) (AgrA [1]): ++ (++: 25 < ratio ≤ 125); IC50 at 40 mg/mL HSA (AgrA [1]; [7]): ++ (++: 10 μg/mL < IC50 ≤ 50 μg/mL); IC50 without HSA (AgrA [1]; [8]): +++ (+++: IC50 ≤ 1 μg/mL) |
| Cc1ccc(S(=O)(=O)c2nnn3c2[nH]c(=O)c2ccc(N4CCCN(CCC(=O)N5CCOCC5)CC4)cc23)c(C)c1 [Compound 168] |  |  | Ratio IC50 (in presence of HSA)/IC50 (in absence of HSA) (AgrA [1]): +++ (+++: ratio ≤ 25); IC50 at 40 mg/mL HSA (AgrA [1]; [7]): +++ (+++: IC50 ≤ 10 μg/mL); IC50 without HSA (AgrA [1]; [8]): ++ (++: 1 μg/mL < IC50 ≤ 5 μg/mL) |
| O=C(CN1CCN(c2ccc3c(=O)[nH]c4c(S(=O)(=O)c5ccc(C(F)(F)F)cc5)nnn4c3c2)CC1)N1CCOCC1 [Compound 169] | 16.5 to 82.6 | 1.65 to 8.26 |  |
| Cc1ccc(S(=O)(=O)c2nnn3c2[nH]c(=O)c2ccc(N4CCN(CC(=O)NCCc5ccncc5)CC4)cc23)c(C)c1 [Compound 175] | 16.6 to 83.2 | < 1.66 |  |
| CC(C)c1ccc(S(=O)(=O)c2nnn3c2nc(O)c2ccccc23)cc1 [Savirin] |  |  | abscess size and dermonecrosis (MRSA USA300 type strain): significant reduction; exotoxin-induced red blood cell (RBC) lysis (red blood cell (RBC)): inhibited; modulation of AgrA-regulated toxin gene transcription (hla, psma, pvl) (AgrA [2]): potent modulator; resistance development (S. aureus [3]): No resistance was developed; viability of S. aureus (S. aureus [4]): without affecting viability |
